Like-named read-outs stand apart in the source and are kept apart here.
How the values were obtained:
[1] = tested on: adults of Tetranychus cinnabarinus; assay: Acaricidal activity against adults in greenhouse (spray on broadbean shoots, mortality after 72 hrs); assay type: in vivo; settings: for control against adults of Tetranychus cinnabarinus: spray, 72 hrs
Method: (§1) The activity determinations of compounds of the present invention against adults, nymphs and eggs of Tetranychus cinnabarinus were carried out in greenhouse by the following procedures:
The activity determination against adults in greenhouse: the compounds were weighed and dissolved in acetone to obtain mother liquid, and then the mother liquid was diluted to required concentration with placed running water containing 0.1% of Tween 80. Broadbean shoots with two true leaves were used to inoculate adults of Tetranychus cinnabarinus which were counted, spraying treatment was performed by portable sprayer (DeVilbiss Atomizer M163), 3 replicates were set for each treatment. After treatment the broadbean shoots were maintained in standard observation room. Scores were conducted and mortalities were calculated after 72 hrs.

[2] = tested on: citrus red mite; assay: Field trial against citrus red mite (Guilin, China); assay type: in vivo
Method: Field Trial Against Citrus Red Mite (Guilin, China)
The trial was carried out in a 2-year-old Shatang orange orchard in Chaotian town lingchuan county guilin city, trifoliate orange trees were selected as stocks, the intervals between two plants was 1.5×2.5 m, the average height was 1.45 m and the crown width was 1.30 m. Two trees were selected in each plot, with random arrangement and 4 replications. Compound 9 (15% SC) was set at two different doses (100 mg/L and 25 mg/L), and spirodiclofen (24% SC) was set at one dose (48 mg/L). Matabi Supergreen 16 Knapsack Sprayer 16 Liter was used to spray evenly with 2 L of spaying volume for each plant. The plants were treated once on 30 Oct. 2009, at that time, adults, nymphs and eggs of citrus red mite all existed, with adults/eggs=1/1.27. During the day the plants were treated, and the weather was good with the average temperature at 23° C. The first three days after treatment were all clear days. The number of mites was investigated before treatment and on the 1st, 3rd, 10th, 15th, 20th and 30th day after treatment respectively. Two trees of each plot were investigated according to the five directions of the tree crown (east, south, west, north and central), 5 leaves in each direction were investigated to calculate the number of living mites, with 50 leaves each plot. The decline rate of mite population and corrected efficacy were calculated according to formulas below: The decline rate of mite population(%)=[(the average number of mite on each leaf before treatment−the average number of mite on each leaf after treatment)/the average number of mite on each leaf before treatment]×100. Corrected efficacy(%)=[(the decline rate of mite population in treated area−the decline rate of mite population in untreated area)/(100−the decline rate of mite population in untreated area)]×100.

[3] = tested on: eggs of Tetranychus cinnabarinus; assay: Activity against eggs in greenhouse (hatching inhibition rate); assay type: in vivo; settings: Tetranychus cinnabarinus
Method: as §1
The activity determination against eggs in greenhouse: Broadbean shoots in pot with one true leaf retained were taken, ten healthy female adults of Tetranychus cinnabarinus were inoculated to the leaves, the adults were removed after 24 hrs and the eggs were counted and then sprayed. The treatment of test compounds and spaying method were the same as that of the activity determination in greenhouse against adults. Once eggs of blank control were all hatched after 5 days, unhatched eggs in each treatment were investigated and the hatching inhibition rate were calculated.

[4] = tested on: nymphs of Tetranychus cinnabarinus; assay: Acaricidal activity against nymphs in greenhouse (spray, mortality after 72 hrs); assay type: in vivo
Method: as §1
The activity determination against nymphs in greenhouse: broadbean shoots with two true leaves in pot were taken, ten healthy female adults of Tetranychus cinnabarinus were inoculated to the leaves, the adults were removed after 24 hrs and the eggs were cultivated into nymphs after 7-10 days. The nymphs were counted and then sprayed. 3 replicates were set for each treatment. And then were maintained in standard observation room. Scores were conducted and mortalities were calculated after 72 hrs.

In the case of CO/C=C(/C(=O)OC)c1ccccc1COc1cc(C(F)(F)F)nc(Nc2ccc(Cl)cc2Cl)n1 [Compound 9], the mortality at 0.625 µg/mL ([1]; Tetranychus cinnabarinus, 0.625 mg/L, Table 7, read-out: mortalities of adults of Tetranychus cinnabarinus (%)) is reported as 88%, the mortality at 1.25 µg/mL ([1]; Tetranychus cinnabarinus, 1.25 mg/L, Table 7, read-out: mortalities of adults of Tetranychus cinnabarinus (%)) is reported as 90% and the mortality at 2.5 µg/mL ([1]; Tetranychus cinnabarinus, 2.5 mg/L, Table 7, read-out: mortalities of adults of Tetranychus cinnabarinus (%)) is reported as 98%. It also gave a mortality at 5 µg/mL ([1]; Tetranychus cinnabarinus, 5 mg/L, Table 7, read-out: mortalities of adults of Tetranychus cinnabarinus (%)) of 100%, a mortality at 10 µg/mL ([1]; Tetranychus cinnabarinus, 10 mg/L, Table 7, read-out: mortalities of adults of Tetranychus cinnabarinus (%)) of 100% and a mortality at 40 µg/mL ([1]; Tetranychus cinnabarinus, 40 mg/L, Table 7, read-out: mortalities of adults of Tetranychus cinnabarinus (%)) of 100%. For the same molecule, the “control against adults of Tetranychus cinnabarinus” value (“control against adults” for short) ([1]; dose 5 mg/L) was 100%, the “control against adults” value ([1]; dose 10 mg/L) was 100% and the “control against adults” value ([1]; dose 40 mg/L) was 100%. For the same molecule, the “control against adults” value ([1]; dose 100 mg/L) was 100%, the “Corrected efficacy (%)” value ([2]; 25 mg/L (15% SC), the 1st day after treatment) was 90% and the “Corrected efficacy (%)” value ([2]; 25 mg/L (15% SC), the 3rd day after treatment) was 92%. For the same molecule, the “Corrected efficacy (%)” value ([2]; 25 mg/L (15% SC), the 10th day after treatment) was 83%, the “Corrected efficacy (%)” value ([2]; 25 mg/L (15% SC), the 15th day after treatment) was 91% and the “Corrected efficacy (%)” value ([2]; 25 mg/L (15% SC), the 20th day after treatment) was 92%. For the same molecule, the “Corrected efficacy (%)” value ([2]; 25 mg/L (15% SC), the 30th day after treatment) was 91%, the “Corrected efficacy (%)” value ([2]; 100 mg/L (15% SC), the 1st day after treatment) was 92% and the “Corrected efficacy (%)” value ([2]; 100 mg/L (15% SC), the 3rd day after treatment) was 96%. For the same molecule, the “Corrected efficacy (%)” value ([2]; 100 mg/L (15% SC), the 10th day after treatment) was 96%, the “Corrected efficacy (%)” value ([2]; 100 mg/L (15% SC), the 15th day after treatment) was 95% and the “Corrected efficacy (%)” value ([2]; 100 mg/L (15% SC), the 20th day after treatment) was 97%. The “Corrected efficacy (%)” value ([2]; 100 mg/L (15% SC), the 30th day after treatment) was 94%, the inhibition at 0.625 µg/mL ([3]; 0.625 mg/L, Table 8, read-out: hatching inhibition rate against eggs (%)) was 20% and the inhibition at 2.5 µg/mL ([3]; 2.5 mg/L, Table 8, read-out: hatching inhibition rate against eggs (%)) was 100%. The inhibition at 10 µg/mL ([3]; 10 mg/L, Table 8, read-out: hatching inhibition rate against eggs (%)) was 100%, the inhibition at 2.5 µg/mL ([3]; dose 2.5 mg/L, read-out: hatching inhibition rate against eggs of Tetranychus cinnabarinus) was no less than 90% and the inhibition at 10 µg/mL ([3]; dose 10 mg/L, read-out: hatching inhibition rate against eggs of Tetranychus cinnabarinus) was 100%. For the same molecule, the “control against nymphs of Tetranychus cinnabarinus” value ([4]; dose 0.63 mg/L) was “more than 95%” and the “control against nymphs of Tetranychus cinnabarinus” value ([4]; dose 2.5 mg/L) was 100%.

Molecule CO/C=C(/C(=O)OC)c1ccccc1COc1nc(Nc2ccc(F)cc2F)nc2c1CCC2 [Compound 96] has a melting point of 106 to 108 °C.

Work on CO/C=C(/C(=O)OC)c1ccccc1COc1nc(Nc2ccc(Cl)cc2Cl)nc2c1CCC2 [Compound 97] yielded a melting point of 150 to 151 °C.

CO/C=C(/C(=O)OC)c1ccccc1COc1nc(Nc2ccc(F)c(F)c2F)nc2c1CCC2 [Compound 103] showed a melting point of 118 to 120 °C.

In the case of CO/C=C(/C(=O)OC)c1ccccc1COc1nc(Nc2ccc(Cl)c(C)c2Cl)nc2c1CCC2 [Compound 105], the melting point is reported as 150 to 151 °C.

Work on CO/C=C(/C(=O)OC)c1ccccc1COc1nc(Nc2cccc(Cl)c2Cl)nc2c1CCC2 [Compound 128] yielded a melting point of 132 to 134 °C.
